In publication PMC10119927, “Compact Rotaxane Superbases” (Journal of the American Chemical Society, 2023):
“And” between values parts separate entries of the source, which are not always exact repeats. Equal values may be shown once. “Also recorded” adds a separate entry of the source. Read-outs that look alike come from different tables or passages of the source. Values belong to the compound of their own block, whether it stands above or below them.

Experiments:
[1] = cited from earlier work
[2] = Hydrolytic decomposition in 1 M NaOD in 9:1 v/v CD3OD/D2O
[3] = pKaH+ determination by Lambert's method with reference bases (1H NMR); conditions: for pKaH+: Lambert's method
Experimental: The pKaH^+ values shown were determined in CD3CN using Lambert’s method[8] with appropriate reference bases (see Supporting Information, Section 2.0).

[4] = Base-mediated elimination of HBr from 4-bromophenethyl bromide: deprotonation kinetics and protonation vs alkylation; conditions: for Half-life, t1/2: calculated based on second-order kinetics; for half-life (h) (25 °C) / half-life (h) (80 °C): deprotonation of 4-bromophenethyl bromide
[5] = hydrolytic decomposition, 1 M NaOD, 9:1 CD3OD/D2O, 25 °C
[6] = 25 °C, 1 M NaOD in 9:1 d4-methanol:D2O, pseudo-first-order
[7] = hydrolytic decomposition, 1 M NaOD, 9:1 CD3OD/D2O, 80 °C
[8] = 80 °C, 1 M NaOD in 9:1 d4-methanol:D2O, pseudo-first-order
[9] = Table 1, conventional superbases
[10] = Table S1, conventional superbases

SMILES: NCCCCN [1,4-diaminobutane]
pKaH+ ([1]; in CD3CN, reference base): 20.1

SMILES: C1COCCOCCOCCOCCOCCOCCO1.FC(F)(F)c1cc(CNCc2cc(C(F)(F)F)cc(C(F)(F)F)c2)cc(C(F)(F)F)c1 [21C7⊂3]
hydrolytic stability (in words) ([2]; 1 M NaOD, 9:1 CD3OD/D2O): consumed completely within a matter of minutes; also recorded: decompose quickly | half-life (25 °C) [2, 5]: <0.083 h | pKaH+ (MeCN) ([3]; Table 1, rotaxanes): 24.9 | pKaH+ ([3]; in CD3CN): 24.9 ± 0.1 | increase in the basicity of the secondary amine upon encapsulation ([3]; rotaxane vs thread 3, from pKaH+ values): 10^13 fold | Half-life, t1/2 ([4]; 80 °C): 169.69 days | half-life (h) (25 °C) ([4]; 25 °C): >5000 h | half-life (h) (80 °C) ([4]; 80 °C): 4073 h | rate of substrate deprotonation relative to the other rotaxanes in the series ([4]; in words): much more slowly

SMILES: C1COCCOCCOCCOCCOCCOCCO1.FC(F)(F)c1cc(C[NH2+]Cc2cc(C(F)(F)F)cc(C(F)(F)F)c2)cc(C(F)(F)F)c1.F[P-](F)(F)(F)(F)F [21C7⊂3•HPF6]
Half-life [2, 6]: < 0.083 h | pKaH+ (MeCN) ([3]; Table S2, rotaxane HPF6 salts): 24.9

SMILES: C1COCCOCCOCCOCCOCCOCCO1.Cc1cc(C)cc(CNCc2cc(C)cc(C)c2)c1 [21C7⊂6]
hydrolytic stability (in words) ([2]; 1 M NaOD, 9:1 CD3OD/D2O): stable; also recorded: excellent chemical stability | half-life (25 °C) [2, 5]: >170 h | half-life (80 °C) [2, 7]: >170 h | pKaH+ (MeCN) ([3]; Table 1, rotaxanes): 32.2 | basicity higher than either non-interlocked component ([3]; in CD3CN): ~13 orders of magnitude | pKaH+ ([3]; in CD3CN): 32.2 ± 0.6 | Half-life, t1/2 ([4]; 25 °C): 0.00625 days | half-life (h) (25 °C) ([4]; 25 °C): 0.15 h | rate of deprotonation of 4-bromophenethyl bromide relative to the conventional organic superbases ([4]; in words): several thousand times faster

SMILES: C1CCC2=NCCCN2CC1 [DBU, 1,8-diazabicyclo(5.4.0)undec-7-ene, reference compound]
pKaH+ (MeCN) [1, 9]: 24.3[1] | pKaH+ (MeCN) [1, 10]: 24.3 | pKaH+ (MeCN) ([1]; Table S2, reference superbases): 24.3 | Half-life ([2]; buffer, Half-life, 25 °C, 1 M NaOD in 9:1 d4-methanol:D2O, pseudo-first-order): 10.9 h | Half-life ([2]; buffer, half-life (25 °C), hydrolytic decomposition, 1 M NaOD, 9:1 CD3OD/D2O, 25 °C): 11 h | Half-life, t1/2 ([4]; 25 °C): 26.47 days | half-life (h) (25 °C) ([4]; 25 °C): 635 h

SMILES: CN(C)P(=NC(C)(C)C)(N(C)C)N(C)C [P1-^tBu, tert-butylimino-tris(dimethylamino)phosphorane, reference compound]
pKaH+ (MeCN) [1, 9]: 27.0[1] | pKaH+ (MeCN) [1, 10]: 27 | pKaH+ (MeCN) ([1]; Table S2, reference superbases): 27.0 | Half-life [2, 8]: > 170 h | half-life (25 °C) [2, 5]: >170 h | half-life (80 °C) [2, 7]: >170 h | Half-life, t1/2 ([4]; 25 °C): 17.45 days | half-life (h) (25 °C) ([4]; 25 °C): 419 h

SMILES: CN(C)c1cccc2cccc(N(C)C)c12 [proton-sponge]
pKaH+ ([1]; in MeCN): 18.6

Now from value to compound, other results behind:

Half-life [2, 8]: > 170 h | pKaH+ (MeCN) ([3]; Table S2, rotaxane HPF6 salts): 32.2
SMILES: C1COCCOCCOCCOCCOCCOCCO1.Cc1cc(C)cc(C[NH2+]Cc2cc(C)cc(C)c2)c1.F[P-](F)(F)(F)(F)F [21C7⊂6•HPF6]

hydrolytic stability (in words) ([2]; 1 M NaOD, 9:1 CD3OD/D2O): decompose quickly | half-life (25 °C) [2, 5]: 6 h | pKaH+ (MeCN) ([3]; Table 1, rotaxanes): 26.3 | pKaH+ ([3]; in CD3CN): 26.3 ± 0.22 and 26.3 ± 0.2 | Half-life, t1/2 ([4]; 80 °C): 10.8 days | half-life (h) (25 °C) ([4]; 25 °C): >5000 h | half-life (h) (80 °C) ([4]; 80 °C): 260 h
SMILES: C1COCCOCCOCCOCCOCCOCCOCCO1.CC(C)(C)c1cc(CNCc2cc(C(C)(C)C)cc(C(C)(C)C)c2)cc(C(C)(C)C)c1 [24C8⊂2]
rate of substrate deprotonation relative to the other rotaxanes in the series ([4]; in words): much more slowly

Half-life [2, 6]: 6.2 h | pKaH+ (MeCN) ([3]; Table S2, rotaxane HPF6 salts): 26.3
SMILES: C1COCCOCCOCCOCCOCCOCCOCCO1.CC(C)(C)c1cc(C[NH2+]Cc2cc(C(C)(C)C)cc(C(C)(C)C)c2)cc(C(C)(C)C)c1.F[P-](F)(F)(F)(F)F [24C8⊂2•HPF6]

hydrolytic stability (in words) ([2]; 1 M NaOD, 9:1 CD3OD/D2O): stable | half-life (25 °C) [2, 5]: >170 h | half-life (80 °C) [2, 7]: >170 h | pKaH+ (MeCN) ([3]; Table 1, rotaxanes): 20.5 | pKaH+ ([3]; in CD3CN): 20.5 ± 0.1 | Half-life, t1/2 ([4]; 25 °C): 7.317 days | half-life (h) (25 °C) ([4]; 25 °C): 176 h
SMILES: C1COCCOCCOCCOCCOCCOCCOCCO1.FC(F)(F)c1cc(CNCc2cc(C(F)(F)F)cc(C(F)(F)F)c2)cc(C(F)(F)F)c1 [24C8⊂3]

Half-life [2, 8]: > 170 h | pKaH+ (MeCN) ([3]; Table S2, rotaxane HPF6 salts): 20.5
SMILES: C1COCCOCCOCCOCCOCCOCCOCCO1.FC(F)(F)c1cc(C[NH2+]Cc2cc(C(F)(F)F)cc(C(F)(F)F)c2)cc(C(F)(F)F)c1.F[P-](F)(F)(F)(F)F [24C8⊂3•HPF6]

pKaH+ ([3]; in CD3CN): 22.9 ± 0.3 and 22.9 ± 0.1
SMILES: C1COCCOCCOCCOCCOCCOCCOCCO1.CC(C)(C)c1cc(CNCc2cc(C(F)(F)F)cc(C(F)(F)F)c2)cc(C(C)(C)C)c1 [24C8⊂4]

pKaH+ ([3]; in CD3CN): 23.2 ± 0.3 and 23.2 ± 0.2
SMILES: C1COCCOCCOCCOCCOCCOCCOCCO1.COc1c(C(C)(C)C)cc(CNCc2cc(C(F)(F)F)cc(C(F)(F)F)c2)cc1C(C)(C)C [24C8⊂5]

Half-life [2, 8]: > 170 h | pKaH+ (MeCN) ([3]; Table S2, rotaxane HPF6 salts): 20.3
SMILES: FC(F)(F)c1cc(C[NH2+]Cc2cc(C(F)(F)F)cc(C(F)(F)F)c2)cc(C(F)(F)F)c1.F[P-](F)(F)(F)(F)F.c1ccc2c(c1)OCCOCCOCCOc1ccccc1OCCOCCOCCO2 [DB24C8⊂3•HPF6]

Half-life [2, 8]: > 170 h | pKaH+ (MeCN) ([3]; Table S2, rotaxane HPF6 salts): 20.7
SMILES: F[P-](F)(F)(F)(F)F.O=C(CC[NH2+]Cc1cc(C(F)(F)F)cc(C(F)(F)F)c1)Nc1cc(C(F)(F)F)cc(C(F)(F)F)c1.c1ccc2c(c1)OCCOCCOCCOc1ccccc1OCCOCCOCCO2 [DB24C8⊂8•HPF6]
